Source: PMC12203311, “Design, synthesis, in silico and in vitro evaluation of pyrrole–indole hybrids as dual tubulin and aromatase inhibitors with potent anticancer activities” (RSC Advances, 2025)

What was measured:
[1] = tested on: SK-OV-3; assay: NCI60 five-dose screen; type: cell-based; conditions: Homo sapiens, SK-OV-3, ovarian cancer; for CC50: read-out: LC50 (the source's name)
[2] = tested on: MDA-MB-231/ATCC; assay: NCI60 five-dose screen; type: cell-based; conditions: Homo sapiens, breast cancer; for CC50: read-out: LC50 (the source's name)
[3] = tested on: A549/ATCC; assay: NCI60 five-dose screen; type: cell-based; conditions: Homo sapiens, NSC lung cancer; for CC50: read-out: LC50 (the source's name)
[4] = tested on: MALME-3M; assay: NCI60 five-dose screen; type: cell-based; conditions: Homo sapiens, melanoma; for CC50: read-out: LC50 (the source's name)
[5] = tested on: M14; assay: NCI60 five-dose screen; type: cell-based; conditions: Homo sapiens, M14, melanoma; for CC50: read-out: LC50 (the source's name)
[6] = tested on: HCT-15; assay: NCI60 five-dose screen; type: cell-based; conditions: Homo sapiens, HCT-15, colon cancer; for CC50: read-out: LC50 (the source's name)
[7] = tested on: NCI-H322M; assay: NCI60 five-dose screen; type: cell-based; conditions: Homo sapiens, NSC lung cancer; for CC50: read-out: LC50 (the source's name)
[8] = tested on: RXF 393; assay: NCI60 five-dose screen; type: cell-based; conditions: Homo sapiens, RXF 393, renal cancer; for CC50: read-out: LC50 (the source's name)
[9] = tested on: KM12; assay: NCI60 five-dose screen; type: cell-based; conditions: Homo sapiens, KM12, colon cancer; for CC50: read-out: LC50 (the source's name)
[10] = tested on: SF-539; assay: NCI60 five-dose screen; type: cell-based; conditions: Homo sapiens, SF-539, CNS cancer; for CC50: read-out: LC50 (the source's name)
[11] = tested on: SNB-19; assay: NCI60 five-dose screen; type: cell-based; conditions: Homo sapiens, SNB-19, CNS cancer; for CC50: read-out: LC50 (the source's name)
[12] = tested on: NCI-H460; assay: NCI60 five-dose screen; type: cell-based; conditions: Homo sapiens, NCI-H460, NSC lung cancer; for CC50: read-out: LC50 (the source's name)
[13] = tested on: UACC-257; assay: NCI60 five-dose screen; type: cell-based; conditions: Homo sapiens, UACC-257, melanoma; for CC50: read-out: LC50 (the source's name)
[14] = tested on: NCI-H522; assay: NCI60 five-dose screen; type: cell-based; conditions: Homo sapiens, NCI-H522, NSC lung cancer; for CC50: read-out: LC50 (the source's name)
[15] = tested on: MDA-MB-435; assay: NCI60 five-dose screen; type: cell-based, human; conditions: Homo sapiens; for GI50: MDA-MB-435, melanoma; for CC50: MDA-MB-435, MDA-MB-435, melanoma, read-out: LC50 (the source's name)
[16] = tested on: EKVX; assay: NCI60 five-dose screen; type: cell-based; conditions: Homo sapiens, NSC lung cancer; for CC50: read-out: LC50 (the source's name)
[17] = tested on: SW-620; assay: NCI60 five-dose screen; type: cell-based; conditions: Homo sapiens, SW-620, colon cancer; for CC50: read-out: LC50 (the source's name)
[18] = tested on: NCI/ADR-RES; assay: NCI60 five-dose screen; type: cell-based, human; conditions: Homo sapiens, ovarian cancer; for CC50: read-out: LC50 (the source's name)
[19] = tested on: OVCAR-4; assay: NCI60 five-dose screen; type: cell-based; conditions: Homo sapiens, OVCAR-4, ovarian cancer; for CC50: read-out: LC50 (the source's name)
[20] = target: T1, Human CYP19 (aromatase) (Homo sapiens, UniProt P11511); assay: Aromatase inhibition assay (DBF fluorometric substrate); type: biochemical; conditions: active defined as IC50 < 12.5 µM
T1 construct: purchased GENTEST, Woburn, MA 456260; host or cells: baculovirus/insect cells
T1 sequence (P11511 1-503): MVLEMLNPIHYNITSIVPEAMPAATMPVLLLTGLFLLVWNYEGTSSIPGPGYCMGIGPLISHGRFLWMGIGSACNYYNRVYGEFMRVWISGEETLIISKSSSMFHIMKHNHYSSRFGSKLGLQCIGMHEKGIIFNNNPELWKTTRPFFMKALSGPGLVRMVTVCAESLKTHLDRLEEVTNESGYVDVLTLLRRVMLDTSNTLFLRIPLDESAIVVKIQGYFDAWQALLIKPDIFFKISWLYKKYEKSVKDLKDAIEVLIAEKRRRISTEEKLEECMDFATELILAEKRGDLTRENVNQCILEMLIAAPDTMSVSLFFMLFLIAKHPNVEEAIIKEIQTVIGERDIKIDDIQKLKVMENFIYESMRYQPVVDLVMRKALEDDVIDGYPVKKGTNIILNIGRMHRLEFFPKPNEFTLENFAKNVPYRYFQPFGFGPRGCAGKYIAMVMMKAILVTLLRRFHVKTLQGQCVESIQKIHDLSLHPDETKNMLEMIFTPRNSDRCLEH
Procedure: Aromatase enzyme was purchased from GENTEST, Woburn, MA01801, USA (Supersom human CYP19+oxidoreductase, baculovirus/insect cell-expressed; Product No. 456260). The aromatase inhibitory activity was performed using Human CYP19 enzymes and DBF as a fluorometric substrate as described by Stresser, et al.[41] with minor modifications. The mixture, containing 100 µL of cofactor/serial dilution buffer was pre-incubated in 37 °C for 10 min. […] After incubation at 37 °C for 30 min, the reaction was stopped by addition of 50 µL of 2.2 M NaOH. Fluorescence signal was monitored using an excitation wavelength of 490 nm and emission wavelength of 530 nm.

[21] = tested on: OVCAR-8; assay: NCI60 five-dose screen; type: cell-based; conditions: Homo sapiens, OVCAR-8, ovarian cancer; for CC50: read-out: LC50 (the source's name)
[22] = tested on: MOLT-4; assay: NCI60 five-dose screen; type: cell-based; conditions: Homo sapiens, MOLT-4, leukemia; for CC50: read-out: LC50 (the source's name)
[23] = tested on: K-562; assay: NCI60 five-dose screen; type: cell-based; conditions: Homo sapiens, K562, K-562, leukemia; for CC50: read-out: LC50 (the source's name)
[24] = tested on: HS 578T; assay: NCI60 five-dose screen; type: cell-based; conditions: Homo sapiens, breast cancer; for CC50: read-out: LC50 (the source's name)
[25] = tested on: DU-145; assay: NCI60 five-dose screen; type: cell-based; conditions: Homo sapiens, DU-145, prostate cancer; for CC50: read-out: LC50 (the source's name)
[26] = tested on: NCI-H226; assay: NCI60 five-dose screen; type: cell-based; conditions: Homo sapiens, NCI-H226, NSC lung cancer; for CC50: read-out: LC50 (the source's name)
[27] = tested on: MCF7; assay: NCI60 five-dose screen; type: cell-based; conditions: Homo sapiens, MCF7, breast cancer; for CC50: read-out: LC50 (the source's name)

## O=C(N/N=C/c1ccc[nH]1)c1[nH]c2ccc(Br)cc2c1-c1ccccc1 [Derivative 3a, (E)-N′-((1H-Pyrrol-2-yl)methylene)-5-bromo-3-phenyl-1H-indole-2-carbohydrazide]
[1]
  GI50: 0.702 µM
  CC50: 31.8 µM
[2]
  GI50: 0.396 µM
  CC50: 21 µM
[3]
  GI50: 0.357 µM
  CC50: 33.6 µM
[4]
  GI50: 0.32 µM
  CC50: 30.9 µM
[5]
  GI50: 0.304 µM
  CC50: 41.4 µM
[6]
  GI50: 0.269 µM
  CC50: 32.3 µM
[7]
  GI50: 0.661 µM
  CC50: 36.5 µM
[8]
  GI50: 0.339 µM
  CC50: 35.1 µM
[9]
  GI50: 0.388 µM
  CC50: 56.5 µM
[10]
  GI50: 0.202 µM
  CC50: 14.6 µM
[11]
  GI50: 0.416 µM
  CC50: 35 µM
[12]
  GI50: 0.318 µM
  CC50: 12.5 µM
[13]
  GI50: 0.647 µM
  CC50: 47.1 µM
[14]
  GI50: 0.045 µM
  CC50: 22 µM
[15]
  GI50: 0.105 µM
[16]
  GI50: 1.23 µM
  CC50: 33.4 µM
[17]
  GI50: 0.352 µM
  CC50: 37.4 µM
[18]
  GI50: 0.44 µM
  CC50: 59.2 µM
[19]
  GI50: 0.814 µM
  CC50: 33.6 µM
[20]
  IC50: 3.4 ± 0.6 µM
[21]
  GI50: 0.323 µM
  CC50: 6.55 µM
[22]
  GI50: 0.384 µM
  CC50: > 100 µM
[23]
  GI50: 0.202 µM
  CC50: > 100 µM
[24]
  GI50: 0.452 µM
  CC50: > 100 µM
[25]
  GI50: 0.429 µM
  CC50: 33.3 µM
[26]
  GI50: 0.323 µM
  CC50: 23.3 µM
[27]
  GI50: 0.136 µM
  CC50: 29.1 µM

## O=C(N/N=C/c1cc[nH]c1)c1[nH]c2ccc(Br)cc2c1-c1ccccc1 [Derivative 3b, (E)-N′-((1H-Pyrrol-3-yl)methylene)-5-bromo-3-phenyl-1H-indole-2-carbohydrazide]
[1]
  GI50: 5.59 µM
  CC50: 71.9 µM
[2]
  GI50: 1.62 µM
  CC50: 26.4 µM
[3]
  GI50: 1.61 µM
  CC50: 52.6 µM
[4]
  GI50: 3.46 µM
  CC50: 48.3 µM
[5]
  GI50: 1.58 µM
  CC50: 45.8 µM
[6]
  GI50: 0.918 µM
  CC50: 34 µM
[7]
  GI50: 2.38 µM
  CC50: 37.2 µM
[8]
  GI50: 1.78 µM
  CC50: 46.5 µM
[9]
  GI50: 0.996 µM
  CC50: 37.8 µM
[10]
  GI50: 0.869 µM
  CC50: 17 µM
[11]
  GI50: 2.55 µM
  CC50: 39.8 µM
[12]
  GI50: 0.657 µM
  CC50: 46 µM
[13]
  GI50: 8.22 µM
  CC50: 47.8 µM
[14]
  GI50: 0.925 µM
  CC50: 24 µM
[15]
  CC50: 15.8 µM
  GI50: 0.463 µM
[16]
  GI50: 4.41 µM
  CC50: 41.7 µM
[17]
  GI50: 0.548 µM
  CC50: 49.4 µM
[18]
  GI50: 0.636 µM
  CC50: 27.1 µM
[19]
  GI50: 4.82 µM
  CC50: 45.2 µM
[20]
  IC50: 11 ± 1.3 µM
[21]
  GI50: 1.21 µM
  CC50: 38.6 µM
[22]
  GI50: 1.52 µM
  CC50: > 100 µM
[23]
  GI50: 0.429 µM
  CC50: 97 µM
[24]
  GI50: 1.31 µM
  CC50: > 100 µM
[25]
  GI50: 1.95 µM
  CC50: 34.7 µM
[26]
  GI50: 2.52 µM
  CC50: 51.2 µM
[27]
  GI50: 0.436 µM
  CC50: 49.8 µM

## Cc1cc(C)c(/C=N/NC(=O)c2[nH]c3ccc(Br)cc3c2-c2ccccc2)[nH]1 [Derivative 3c, (E)-5-Bromo-N′-((3,5-dimethyl-1H-pyrrol-2-yl)methylene)-3-phenyl-1H-2-carbohydrazide]
[1]
  GI50: 6.81 µM
  CC50: 70.8 µM
[2]
  GI50: 2.78 µM
  CC50: 32.8 µM
[3]
  GI50: 3.82 µM
  CC50: 45.4 µM
[4]
  GI50: 3.16 µM
  CC50: 38.5 µM
[5]
  GI50: 4.45 µM
  CC50: 49.9 µM
[6]
  GI50: 2.91 µM
  CC50: 37.2 µM
[7]
  GI50: 2.69 µM
  CC50: 38.7 µM
[8]
  GI50: 2.26 µM
  CC50: 35 µM
[9]
  GI50: 2.96 µM
  CC50: 35.4 µM
[10]
  GI50: 2.93 µM
  CC50: 32.4 µM
[11]
  GI50: 3.86 µM
  CC50: 39.4 µM
[12]
  GI50: 2.83 µM
  CC50: 37.9 µM
[13]
  GI50: 4.35 µM
  CC50: 49.2 µM
[14]
  GI50: 2.61 µM
  CC50: 32.7 µM
[15]
  CC50: 34 µM
  GI50: 2.84 µM
[16]
  GI50: 3.24 µM
  CC50: 35.4 µM
[17]
  GI50: 3.06 µM
  CC50: 42 µM
[18]
  GI50: 2.11 µM
  CC50: 19.3 µM
[19]
  GI50: 3.55 µM
  CC50: 40.7 µM
[20]
  IC50: 11.1 ± 2 µM
[21]
  GI50: 3.1 µM
  CC50: 45 µM
[22]
  GI50: 2.29 µM
  CC50: > 100 µM
[23]
  GI50: 2.43 µM
  CC50: > 100 µM
[24]
  GI50: 2.31 µM
  CC50: > 100 µM
[25]
  GI50: 4.07 µM
  CC50: 38.9 µM
[26]
  GI50: 2.58 µM
  CC50: 34.4 µM
[27]
  GI50: 2.3 µM
  CC50: 37.2 µM
